Results published in ChEMBL document CHEMBL3991601, “The target landscape of clinical kinase drugs” (Science, 2017).
pKd: −log10 of the molar value. Activity calls are given as the source filed them. Cut-off read from the data, not from the text of the source, for most assays here: actives have a measured Kd and inactives only a lower limit.

Key:
[1] = biological target: Cyclin-dependent kinase 1 (Homo sapiens, UniProt P06493)
[2] = biological target: T1, Ephrin type-B receptor 2 (Homo sapiens, UniProt P29323)
T1 sequence (P29323 whole entry): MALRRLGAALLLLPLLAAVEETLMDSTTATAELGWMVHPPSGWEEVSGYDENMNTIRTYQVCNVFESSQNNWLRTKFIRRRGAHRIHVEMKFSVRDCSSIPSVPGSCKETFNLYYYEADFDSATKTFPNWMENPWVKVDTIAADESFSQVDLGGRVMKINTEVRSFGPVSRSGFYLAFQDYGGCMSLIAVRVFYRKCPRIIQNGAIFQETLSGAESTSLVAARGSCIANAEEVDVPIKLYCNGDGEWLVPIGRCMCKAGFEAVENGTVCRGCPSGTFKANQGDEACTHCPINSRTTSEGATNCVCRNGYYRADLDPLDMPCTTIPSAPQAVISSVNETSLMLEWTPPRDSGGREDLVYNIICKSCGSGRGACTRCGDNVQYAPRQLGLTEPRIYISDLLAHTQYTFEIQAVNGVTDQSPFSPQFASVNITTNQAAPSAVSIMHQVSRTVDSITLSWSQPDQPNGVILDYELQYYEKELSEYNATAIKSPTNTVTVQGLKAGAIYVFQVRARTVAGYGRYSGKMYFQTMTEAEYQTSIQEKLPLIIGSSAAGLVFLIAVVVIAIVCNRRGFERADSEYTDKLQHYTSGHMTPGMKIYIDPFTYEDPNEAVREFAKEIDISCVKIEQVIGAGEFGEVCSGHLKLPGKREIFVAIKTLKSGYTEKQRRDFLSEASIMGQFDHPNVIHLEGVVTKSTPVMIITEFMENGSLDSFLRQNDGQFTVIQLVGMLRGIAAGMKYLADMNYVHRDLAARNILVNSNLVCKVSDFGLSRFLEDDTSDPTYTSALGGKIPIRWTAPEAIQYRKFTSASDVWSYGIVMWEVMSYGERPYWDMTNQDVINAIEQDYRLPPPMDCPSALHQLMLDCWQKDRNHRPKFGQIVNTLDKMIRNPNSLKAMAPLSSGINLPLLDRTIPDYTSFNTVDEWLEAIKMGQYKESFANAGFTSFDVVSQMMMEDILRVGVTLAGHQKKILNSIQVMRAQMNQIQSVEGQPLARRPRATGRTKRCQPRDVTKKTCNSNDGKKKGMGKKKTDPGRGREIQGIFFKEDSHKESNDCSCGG

[3] = biological target: T2, Dual specificity mitogen-activated protein kinase kinase 6 (Homo sapiens, UniProt P52564)
T2 sequence (P52564 whole entry): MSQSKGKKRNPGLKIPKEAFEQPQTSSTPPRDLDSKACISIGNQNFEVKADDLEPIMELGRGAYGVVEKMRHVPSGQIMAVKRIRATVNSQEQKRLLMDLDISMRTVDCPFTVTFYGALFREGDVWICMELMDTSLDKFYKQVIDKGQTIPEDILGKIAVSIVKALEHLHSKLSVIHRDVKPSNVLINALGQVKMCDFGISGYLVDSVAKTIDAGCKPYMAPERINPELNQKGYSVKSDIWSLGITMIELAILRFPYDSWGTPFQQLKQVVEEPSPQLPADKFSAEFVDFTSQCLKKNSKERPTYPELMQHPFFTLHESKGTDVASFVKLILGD

[4] = biological target: Mitogen-activated protein kinase kinase kinase 1 (Homo sapiens, UniProt Q13233)
[5] = biological target: MAP kinase-activated protein kinase 2 (Homo sapiens, UniProt P49137)
[6] = biological target: Maternal embryonic leucine zipper kinase (Homo sapiens, UniProt Q14680)
[7] = biological target: T3, Dynamin-like GTPase OPA1, mitochondrial (Homo sapiens, UniProt O60313)
T3 sequence (O60313 whole entry): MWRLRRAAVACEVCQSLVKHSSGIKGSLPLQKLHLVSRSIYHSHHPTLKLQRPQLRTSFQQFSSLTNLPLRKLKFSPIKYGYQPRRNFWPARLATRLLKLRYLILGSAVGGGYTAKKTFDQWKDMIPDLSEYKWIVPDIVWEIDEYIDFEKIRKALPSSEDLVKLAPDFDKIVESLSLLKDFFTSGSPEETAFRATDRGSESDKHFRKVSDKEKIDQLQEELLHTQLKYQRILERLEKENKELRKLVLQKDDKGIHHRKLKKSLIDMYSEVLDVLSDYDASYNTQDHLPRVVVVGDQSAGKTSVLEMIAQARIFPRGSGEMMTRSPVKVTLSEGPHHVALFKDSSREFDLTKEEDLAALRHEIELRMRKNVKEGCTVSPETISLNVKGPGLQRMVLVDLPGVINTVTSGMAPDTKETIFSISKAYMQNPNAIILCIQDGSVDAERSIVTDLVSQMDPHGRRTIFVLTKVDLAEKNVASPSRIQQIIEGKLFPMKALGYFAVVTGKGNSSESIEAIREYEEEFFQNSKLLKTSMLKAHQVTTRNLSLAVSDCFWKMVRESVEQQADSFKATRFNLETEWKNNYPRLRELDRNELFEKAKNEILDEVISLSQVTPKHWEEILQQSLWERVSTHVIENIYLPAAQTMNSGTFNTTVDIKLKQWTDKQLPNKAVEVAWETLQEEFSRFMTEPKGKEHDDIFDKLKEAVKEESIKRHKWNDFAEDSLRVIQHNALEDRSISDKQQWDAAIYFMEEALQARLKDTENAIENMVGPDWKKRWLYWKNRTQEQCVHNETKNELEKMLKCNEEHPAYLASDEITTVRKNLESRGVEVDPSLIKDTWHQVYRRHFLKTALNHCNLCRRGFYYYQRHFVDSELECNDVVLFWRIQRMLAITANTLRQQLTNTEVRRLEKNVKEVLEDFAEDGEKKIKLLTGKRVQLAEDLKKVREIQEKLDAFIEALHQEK

[8] = biological target: Serine/threonine-protein kinase N1 (Homo sapiens, UniProt Q16512)
[9] = biological target: Serine/threonine-protein kinase SIK2 (Homo sapiens, UniProt Q9H0K1)
[10] = biological target: STE20-like serine/threonine-protein kinase (Homo sapiens, UniProt Q9H2G2)
Note: in the data inactive means no Kd found up to 30 µM.

STE20-like serine/threonine-protein kinase, sequence (Q9H2G2 whole entry): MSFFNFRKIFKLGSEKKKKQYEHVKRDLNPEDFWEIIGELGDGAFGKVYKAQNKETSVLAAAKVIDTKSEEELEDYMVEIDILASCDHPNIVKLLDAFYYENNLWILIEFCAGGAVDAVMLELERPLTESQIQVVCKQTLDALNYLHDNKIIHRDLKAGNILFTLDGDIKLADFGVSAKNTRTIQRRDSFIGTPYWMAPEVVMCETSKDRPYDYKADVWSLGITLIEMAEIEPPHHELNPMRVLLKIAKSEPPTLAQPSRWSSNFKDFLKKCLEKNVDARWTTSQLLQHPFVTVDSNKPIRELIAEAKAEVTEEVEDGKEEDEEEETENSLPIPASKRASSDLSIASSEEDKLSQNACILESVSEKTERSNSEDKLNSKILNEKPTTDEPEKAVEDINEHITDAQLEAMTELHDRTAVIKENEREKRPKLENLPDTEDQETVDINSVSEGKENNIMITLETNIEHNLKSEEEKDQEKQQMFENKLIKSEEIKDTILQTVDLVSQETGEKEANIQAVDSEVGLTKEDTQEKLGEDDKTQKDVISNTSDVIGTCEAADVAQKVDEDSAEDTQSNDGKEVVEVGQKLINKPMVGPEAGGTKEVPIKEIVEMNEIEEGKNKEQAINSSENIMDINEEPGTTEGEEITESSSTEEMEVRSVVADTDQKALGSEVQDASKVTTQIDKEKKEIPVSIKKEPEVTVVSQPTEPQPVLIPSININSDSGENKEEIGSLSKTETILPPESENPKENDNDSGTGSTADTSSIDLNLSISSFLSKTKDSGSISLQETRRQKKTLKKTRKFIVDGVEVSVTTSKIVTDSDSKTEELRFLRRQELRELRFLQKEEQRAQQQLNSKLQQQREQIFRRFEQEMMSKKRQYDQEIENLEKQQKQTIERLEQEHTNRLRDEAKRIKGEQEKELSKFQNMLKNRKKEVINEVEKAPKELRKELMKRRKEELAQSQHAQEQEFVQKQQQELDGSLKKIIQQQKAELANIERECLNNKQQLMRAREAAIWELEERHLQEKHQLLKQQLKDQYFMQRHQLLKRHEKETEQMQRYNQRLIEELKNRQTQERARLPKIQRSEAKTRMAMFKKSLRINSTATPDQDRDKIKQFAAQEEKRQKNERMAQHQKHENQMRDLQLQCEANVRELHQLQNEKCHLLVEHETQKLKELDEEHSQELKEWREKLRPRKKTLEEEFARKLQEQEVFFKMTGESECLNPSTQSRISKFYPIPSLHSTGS
Serine/threonine-protein kinase N1, sequence (Q16512 whole entry): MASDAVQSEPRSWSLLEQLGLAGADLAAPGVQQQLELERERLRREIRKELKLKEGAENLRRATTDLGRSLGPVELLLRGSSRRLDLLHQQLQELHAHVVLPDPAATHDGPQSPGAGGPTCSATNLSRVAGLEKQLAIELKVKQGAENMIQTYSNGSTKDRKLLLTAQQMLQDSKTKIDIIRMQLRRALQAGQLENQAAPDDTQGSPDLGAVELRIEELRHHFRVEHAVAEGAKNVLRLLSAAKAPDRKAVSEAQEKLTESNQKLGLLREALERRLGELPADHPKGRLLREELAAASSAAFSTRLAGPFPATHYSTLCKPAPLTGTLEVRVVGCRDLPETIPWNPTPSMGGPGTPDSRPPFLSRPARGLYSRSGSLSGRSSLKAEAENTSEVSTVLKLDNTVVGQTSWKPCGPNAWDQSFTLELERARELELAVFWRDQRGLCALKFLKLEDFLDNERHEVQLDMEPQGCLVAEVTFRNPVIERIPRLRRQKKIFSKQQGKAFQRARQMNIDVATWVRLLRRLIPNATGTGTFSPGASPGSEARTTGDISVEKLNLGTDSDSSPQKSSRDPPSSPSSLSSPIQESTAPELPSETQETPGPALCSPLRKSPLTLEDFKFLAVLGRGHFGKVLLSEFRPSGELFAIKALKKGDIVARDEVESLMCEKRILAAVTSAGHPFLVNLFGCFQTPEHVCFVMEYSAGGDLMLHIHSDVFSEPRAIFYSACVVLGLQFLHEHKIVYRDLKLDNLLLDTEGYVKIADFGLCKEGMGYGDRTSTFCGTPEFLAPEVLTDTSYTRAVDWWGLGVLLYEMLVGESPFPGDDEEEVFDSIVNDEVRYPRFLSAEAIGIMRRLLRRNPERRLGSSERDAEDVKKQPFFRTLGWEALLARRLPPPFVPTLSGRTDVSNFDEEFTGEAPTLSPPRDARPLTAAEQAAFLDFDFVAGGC
Serine/threonine-protein kinase SIK2, sequence (Q9H0K1 whole entry): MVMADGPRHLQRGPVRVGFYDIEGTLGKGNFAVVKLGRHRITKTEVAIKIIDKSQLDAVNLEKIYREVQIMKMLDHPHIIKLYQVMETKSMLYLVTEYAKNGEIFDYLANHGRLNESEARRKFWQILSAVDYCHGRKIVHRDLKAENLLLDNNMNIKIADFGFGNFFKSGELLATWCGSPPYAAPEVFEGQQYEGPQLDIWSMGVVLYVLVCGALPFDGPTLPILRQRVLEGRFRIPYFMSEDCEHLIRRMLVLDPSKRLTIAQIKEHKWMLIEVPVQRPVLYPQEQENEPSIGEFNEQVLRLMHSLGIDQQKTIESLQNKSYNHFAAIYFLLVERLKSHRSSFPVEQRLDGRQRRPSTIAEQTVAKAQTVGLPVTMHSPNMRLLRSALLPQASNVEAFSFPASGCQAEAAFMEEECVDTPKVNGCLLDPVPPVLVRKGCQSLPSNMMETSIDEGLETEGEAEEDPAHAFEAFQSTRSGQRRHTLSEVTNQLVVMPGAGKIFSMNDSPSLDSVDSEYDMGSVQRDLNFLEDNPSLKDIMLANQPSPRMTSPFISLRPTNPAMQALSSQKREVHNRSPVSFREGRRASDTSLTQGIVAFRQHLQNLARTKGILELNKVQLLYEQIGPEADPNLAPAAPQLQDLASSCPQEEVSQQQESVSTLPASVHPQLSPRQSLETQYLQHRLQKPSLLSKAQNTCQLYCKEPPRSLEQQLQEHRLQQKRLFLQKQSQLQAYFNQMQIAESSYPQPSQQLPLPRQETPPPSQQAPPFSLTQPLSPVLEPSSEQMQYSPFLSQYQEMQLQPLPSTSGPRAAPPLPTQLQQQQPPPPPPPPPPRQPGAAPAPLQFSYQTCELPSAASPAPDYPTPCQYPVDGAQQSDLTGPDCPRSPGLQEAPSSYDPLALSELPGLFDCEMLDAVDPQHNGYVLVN
Cyclin-dependent kinase 1, sequence (P06493 whole entry): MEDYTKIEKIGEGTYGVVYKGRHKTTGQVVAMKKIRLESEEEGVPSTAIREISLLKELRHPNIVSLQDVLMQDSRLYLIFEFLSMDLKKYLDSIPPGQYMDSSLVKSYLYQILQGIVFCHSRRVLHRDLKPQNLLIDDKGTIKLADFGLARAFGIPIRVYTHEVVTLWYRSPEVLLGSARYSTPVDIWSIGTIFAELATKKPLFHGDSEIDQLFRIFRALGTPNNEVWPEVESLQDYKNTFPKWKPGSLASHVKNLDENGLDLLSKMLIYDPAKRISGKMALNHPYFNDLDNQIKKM
Maternal embryonic leucine zipper kinase, sequence (Q14680 whole entry): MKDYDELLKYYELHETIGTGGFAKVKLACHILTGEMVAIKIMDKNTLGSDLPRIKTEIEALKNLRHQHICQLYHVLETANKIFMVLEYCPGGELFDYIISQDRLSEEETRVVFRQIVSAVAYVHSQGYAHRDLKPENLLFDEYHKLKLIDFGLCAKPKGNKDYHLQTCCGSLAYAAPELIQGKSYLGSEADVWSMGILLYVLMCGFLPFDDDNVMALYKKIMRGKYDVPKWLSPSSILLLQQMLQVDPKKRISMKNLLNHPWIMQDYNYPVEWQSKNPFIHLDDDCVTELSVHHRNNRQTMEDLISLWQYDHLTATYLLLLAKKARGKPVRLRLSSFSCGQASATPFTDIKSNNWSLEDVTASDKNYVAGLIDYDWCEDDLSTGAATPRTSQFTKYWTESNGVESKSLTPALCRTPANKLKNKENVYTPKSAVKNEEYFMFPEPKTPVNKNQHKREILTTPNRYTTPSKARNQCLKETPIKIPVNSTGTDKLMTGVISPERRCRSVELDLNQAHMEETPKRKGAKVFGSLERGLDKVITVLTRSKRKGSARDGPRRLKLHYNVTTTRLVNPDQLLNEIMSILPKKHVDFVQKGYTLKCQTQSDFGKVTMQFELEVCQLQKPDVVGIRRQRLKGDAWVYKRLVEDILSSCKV
MAP kinase-activated protein kinase 2, sequence (P49137 whole entry): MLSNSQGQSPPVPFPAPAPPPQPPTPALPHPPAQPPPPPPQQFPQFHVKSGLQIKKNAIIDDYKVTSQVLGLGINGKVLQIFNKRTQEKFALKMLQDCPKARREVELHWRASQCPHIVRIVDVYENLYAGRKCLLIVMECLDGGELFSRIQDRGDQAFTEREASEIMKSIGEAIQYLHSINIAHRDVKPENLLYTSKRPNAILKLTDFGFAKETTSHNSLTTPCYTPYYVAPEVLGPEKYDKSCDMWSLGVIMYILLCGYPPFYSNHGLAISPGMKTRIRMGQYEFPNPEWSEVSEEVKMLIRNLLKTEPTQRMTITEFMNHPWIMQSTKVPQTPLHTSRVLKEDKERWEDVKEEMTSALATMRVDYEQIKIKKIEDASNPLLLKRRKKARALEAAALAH

Row | SMILES | Kd [1] | Kd [2] | Kd [3] | Kd [4] | Kd [5] | Kd [6] | Kd [7] | Kd [8] | Kd [9] | Kd [10] | pKd [4] | pKd [7]
1 | COc1ncc(-c2ccc3nccc(-c4ccnnc4)c3c2)cc1NS(=O)(=O)c1ccc(F)cc1F [OMIPALISIB] | > 30 µM (inactive) | > 30 µM (inactive) | > 30 µM (inactive) | > 30 µM (inactive) | > 30 µM (inactive) | > 30 µM (inactive) | > 30 µM (inactive) | > 30 µM (inactive) | > 30 µM (inactive) | > 30 µM (inactive) | – | –
2 | CCCCCCCCCCCCCCCCCCOP(=O)([O-])OC1CC[N+](C)(C)CC1 [PERIFOSINE] | > 30 µM (inactive) | > 30 µM (inactive) | > 30 µM (inactive) | > 30 µM (inactive) | > 30 µM (inactive) | > 30 µM (inactive) | > 30 µM (inactive) | > 30 µM (inactive) | > 30 µM (inactive) | > 30 µM (inactive) | – | –
3 | CNC(=O)c1cc(Oc2ccc(NC(=O)Nc3cc(C(C)(C)C)nn3-c3ccc4ncccc4c3)c(F)c2)ccn1 [REBASTINIB] | 1.07 µM (active) | > 30 µM (inactive) | > 30 µM (inactive) | > 30 µM (inactive) | 4.69 µM (active) | > 30 µM (inactive) | > 30 µM (inactive) | > 30 µM (inactive) | > 30 µM (inactive) | > 30 µM (inactive) | – | –
4 | Cn1cc(-c2cnn3c(N)c(Br)c([C@@H]4CCCNC4)nc23)cn1 [SCH-900776] | > 30 µM (inactive) | > 30 µM (inactive) | > 30 µM (inactive) | – | > 30 µM (inactive) | 4.69 µM (active) | > 30 µM (inactive) | > 30 µM (inactive) | 0.27 µM (active) | 2.08 µM (active) | 5.90 | –
5 | O=C(Cc1ccc(-c2ccc(OCCN3CCOCC3)cc2)cn1)NCc1ccccc1 [TIRBANIBULIN] | > 30 µM (inactive) | > 30 µM (inactive) | > 30 µM (inactive) | > 30 µM (inactive) | > 30 µM (inactive) | > 30 µM (inactive) | > 30 µM (inactive) | > 30 µM (inactive) | > 30 µM (inactive) | > 30 µM (inactive) | – | –

Other lines, results leading:

Row | Kd [1] | Kd [2] | Kd [3] | Kd [4] | Kd [5] | Kd [6] | Kd [7] | Kd [8] | Kd [9] | Kd [10] | pKd [4] | pKd [7] | SMILES
6 | > 30 µM (inactive) | > 30 µM (inactive) | > 30 µM (inactive) | > 30 µM (inactive) | > 30 µM (inactive) | > 30 µM (inactive) | > 30 µM (inactive) | > 30 µM (inactive) | > 30 µM (inactive) | > 30 µM (inactive) | – | – | Cc1cnc(NC(=O)Nc2cc(Br)c(C)cc2OC[C@@H]2CNCCO2)cn1 [RABUSERTIB]
7 | > 30 µM (inactive) | > 30 µM (inactive) | > 30 µM (inactive) | > 30 µM (inactive) | > 30 µM (inactive) | > 30 µM (inactive) | > 30 µM (inactive) | > 30 µM (inactive) | > 30 µM (inactive) | > 30 µM (inactive) | – | – | CO[C@H]1C[C@@H]2CC[C@@H](C)[C@@](O)(O2)C(=O)C(=O)N2CCCC[C@H]2C(=O)O[C@H]([C@H](C)C[C@@H]2CC[C@@H](OP(C)(C)=O)[C@H](OC)C2)CC(=O)[C@H](C)/C=C(\C)[C@@H](O)[C@@H](OC)C(=O)[C@H](C)C[C@H](C)/C=C/C=C/C=C/1C [RIDAFOROLIMUS]
8 | > 30 µM (inactive) | > 30 µM (inactive) | > 30 µM (inactive) | > 30 µM (inactive) | > 30 µM (inactive) | > 30 µM (inactive) | > 30 µM (inactive) | > 30 µM (inactive) | > 30 µM (inactive) | > 30 µM (inactive) | – | – | N#CC1(c2ccc(NC(=O)c3cccnc3NCc3ccncc3)cc2)CCCC1 [RIVOCERANIB]
9 | > 30 µM (inactive) | > 30 µM (inactive) | > 30 µM (inactive) | > 30 µM (inactive) | > 30 µM (inactive) | > 30 µM (inactive) | > 30 µM (inactive) | 0.019 µM (active) | > 30 µM (inactive) | > 30 µM (inactive) | – | – | O=c1[nH]ccc2cc(OC3CCNCC3)ccc12 [SAR-407899 FREE BASE]
10 | > 30 µM (inactive) | > 30 µM (inactive) | > 30 µM (inactive) | > 30 µM (inactive) | > 30 µM (inactive) | > 30 µM (inactive) | > 30 µM (inactive) | > 30 µM (inactive) | > 30 µM (inactive) | > 30 µM (inactive) | – | – | CO[C@H]1C[C@@H]2CC[C@@H](C)[C@@](O)(O2)C(=O)C(=O)N2CCCC[C@H]2C(=O)O[C@H]([C@H](C)C[C@@H]2CC[C@@H](O)[C@H](OC)C2)CC(=O)[C@H](C)/C=C(\C)[C@@H](O)[C@@H](OC)C(=O)[C@H](C)C[C@H](C)/C=C/C=C/C=C/1C [SIROLIMUS]
11 | > 30 µM (inactive) | > 30 µM (inactive) | > 30 µM (inactive) | > 30 µM (inactive) | > 30 µM (inactive) | > 30 µM (inactive) | > 30 µM (inactive) | > 30 µM (inactive) | > 30 µM (inactive) | > 30 µM (inactive) | – | – | CO[C@H]1C[C@@H]2CC[C@@H](C)[C@@](O)(O2)C(=O)C(=O)N2CCCC[C@H]2C(=O)O[C@H]([C@H](C)C[C@@H]2CC[C@@H](OC(=O)C(C)(CO)CO)[C@H](OC)C2)CC(=O)[C@H](C)/C=C(\C)[C@@H](O)[C@@H](OC)C(=O)[C@H](C)C[C@H](C)/C=C/C=C/C=C/1C [TEMSIROLIMUS]
12 | > 30 µM (inactive) | 0.448 µM (active) | > 30 µM (inactive) | 1.74 µM (active) | 1.52 µM (active) | > 30 µM (inactive) | > 30 µM (inactive) | > 30 µM (inactive) | > 30 µM (inactive) | 3.42 µM (active) | – | – | COc1cc2c(Nc3ccc(Cl)c(Cl)c3F)ncnc2cc1OC[C@@H]1C[C@@H]2CN(C)C[C@@H]2C1 [TESEVATINIB]
13 | > 30 µM (inactive) | > 30 µM (inactive) | > 30 µM (inactive) | > 30 µM (inactive) | > 30 µM (inactive) | > 30 µM (inactive) | – | > 30 µM (inactive) | > 30 µM (inactive) | > 30 µM (inactive) | – | 7.77 | O=C1NC(=O)[C@@H](c2cn3c4c(cccc24)CCC3)[C@@H]1c1c[nH]c2ccccc12 [TIVANTINIB]
